# Reference: ChEMBL document CHEMBL1201862, “PubChem BioAssay data set” (2004)
#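 Values below derive from 48-hour exposures of cells grown in 96-well plates, with endpoints linearly interpolated between the two concentrations bracketing the appropriate inhibition level. At the GI50, growth is halved.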 Activity calls are given as the source filed them. Cut-off read from the data, not from the text of the source: active = GI50 up to about 1.1 µM and inactive = higher.
# Experiments:
# Experiment in all cases: growth of human tumour cells (NCI), 48 h
# LOX IMVI = test system: LOX IMVI
# NCI-H23 = test system: NCI-H23
# HCT-116 = test system: HCT-116
# CAKI-1 = test system: CAKI-1
# HOP-92 = test system: HOP-92
# UO-31 = test system: UO-31
# U-251 = test system: U-251
# SF-539 = test system: SF-539
# OVCAR-8 = test system: OVCAR-8
# HCT-15 = test system: HCT-15
# NCI-H226 = test system: NCI-H226
# UACC-257 = test system: UACC-257
# OVCAR-3 = test system: OVCAR-3
# EKVX = test system: EKVX
# SK-MEL-5 = test system: SK-MEL-5
# SN12C = test system: SN12C
# NCI-H460 = test system: NCI-H460
# HCC 2998 = test system: HCC 2998
# NCI/ADR-RES = test system: NCI/ADR-RES
# SK-MEL-2 = test system: SK-MEL-2
structure (smiles),measurement,setting,value
COC(=O)C1OC(Oc2cc(O)c3c(=O)cc(-c4ccc(O)cc4)oc3c2)C(O)C(O)C1O (stereo not given),GI50,LOX IMVI,> 100 µM (inactive)
same,GI50,NCI-H23,> 100 µM (inactive)
same,GI50,HCT-116,> 100 µM (inactive)
same,GI50,CAKI-1,> 100 µM (inactive)
same,GI50,HOP-92,> 100 µM (inactive)
same,GI50,UO-31,> 100 µM (inactive)
same,GI50,U-251,> 100 µM (inactive)
same,GI50,SF-539,> 100 µM (inactive)
same,GI50,OVCAR-8,> 100 µM (inactive)
same,GI50,HCT-15,> 100 µM
same,GI50,NCI-H226,> 100 µM (inactive)
same,GI50,UACC-257,> 100 µM (inactive)
same,GI50,OVCAR-3,> 100 µM (inactive)
same,GI50,EKVX,> 100 µM (inactive)
same,GI50,SK-MEL-5,> 100 µM (inactive)
same,GI50,SN12C,> 100 µM (inactive)
same,GI50,NCI-H460,> 100 µM (inactive)
same,GI50,HCC 2998,> 100 µM (inactive)
same,GI50,NCI/ADR-RES,> 100 µM (inactive)
same,GI50,SK-MEL-2,> 100 µM (inactive)
